Measurements reported in patent US9079970B2, “Methods and compositions for specific modulation of MCL-1” (Dana Farber Cancer Institute, Inc., priority 2008, dated 2015).
Entries after “also recorded” stand apart in the source; their conditions may differ. Where a SMILES comes first, the peptide text is derived from it. Bridges are numbered along the chain shown (N, C = ends). [ ]: non-standard residue; d: D form. The star is where a group is joined. S5 = C=CCCC[C@](C)(N)C(=O)O; Nle = CCCC[C@H](N)C(=O)O; Cbz = O=C(OCc1ccccc1)*; CH2F = FC*

B1: TRAIL: death receptor agonist, extrinsic pathway activator (protein, UniProt P50591 1-281, looked up)
Tumor necrosis factor ligand …: MAMMEVQGGPSLGQTCVLIVIFTVLLQSLCVAVTYVYFTNELKQMQDKYSKSGIACFLKEDDSYWDPNDEESMNSPCWQVKWQLRQLVRKMILRTSEETISTVQEKQQNISPLVRERGPQRVAAHITGTRGRSNTLSSPNSKNEKALGRKINSWESSRSGHSFLSNLHLRNGELVIHEKGFYYIYSQTYFRFQEEIKENTKNDKQMVQYIYKYTSYPDPILLMKSARNSCWSKDAEYGLYSIYQGGIFELKENDRIFVSVTNEHLIDMDHEASFFGAFLVG
B2: FasL: death receptor agonist, extrinsic pathway activator (protein, UniProt P48023 130-281, looked up)
Tumor necrosis factor ligand …: QIGHPSPPPEKKELRKVAHLTGKSNSRSMPLEWEDTYGIVLLSGVKYKKGGLVINETGLYFVYSKVYFRGQSCNNLPLSHKVYMRNSKYPQDLVMMEGKMMSYCTTGQMWARSSYLGAVFNLTSADHLYVNVSELSLVNFEESQTFFGLYKL

Tests used:
[1] = target: recombinant BCL-XLΔC (Homo sapiens, UniProt Q07817); experiment: Fluorescence polarization direct binding of FITC-SAHBs to BCL-XLΔC; details: FPA
recombinant BCL-XLΔC, sequence (Q07817 1-209, stated change not applied): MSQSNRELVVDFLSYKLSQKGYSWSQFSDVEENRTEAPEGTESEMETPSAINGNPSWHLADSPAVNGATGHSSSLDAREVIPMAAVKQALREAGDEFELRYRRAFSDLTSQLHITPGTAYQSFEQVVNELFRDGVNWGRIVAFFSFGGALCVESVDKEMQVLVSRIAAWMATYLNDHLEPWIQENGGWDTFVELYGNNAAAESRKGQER
Protocol: (§1) Binding assays were performed as previously described (Pitter et al., Methods Enzymol 446, 387 (2008). Briefly, FITC-SAHB (50 nM) was added to serial dilutions of FPLC-purified recombinant protein in binding buffer (50 mM Tris, 100 mM NaCl, pH 8.0). For competition assays, serial dilutions of acetylated MCL-1 SAHBs were mixed with FITC-BAK SAHB (25 nM), followed by addition of MCL-1ΔNΔC (100 nM) diluted in binding buffer (50 mM Tris, 100 mM NaCl, pH 8.0). Multiwell plates were incubated in the dark at room temperature until equilibrium was reached and fluorescence polarization (mP units) was measured by microplate reader (SpectraMax, Molecular Devices). For direct binding experiments, dissociation constants (KD) were calculated by nonlinear regression analysis of dose-response curves using Prism software (Graphpad). For competition experiments, Ki values were determined by nonlinear regression analysis of dose-response curves using a one-site competition model.
(§2) Recombinant carboxy-terminal deleted anti-apoptotic proteins were expressed using the pGEX-4T vector, and purified as described for rMCL-1. The purified proteins were incubated with FITC-SAHBs, and binding affinities were analyzed by fluorescence polarization assay as described above. […] Optionally, design and optimization of tailored SAHB compounds for anti-apoptotic targeting also employed computational modeling.

[2] = tested on: MCL-1ΔNΔC, BCL-2ΔC, BCL-XLΔC, BCL-wΔC and BFL-1/A1ΔC; experiment: FPA selectivity across panel of anti-apoptotic proteins; type: binding; details: FPA against anti-apoptotic panel
Protocol: as §1
as §2, with “Compounds that bound MCL-1 with high affinity were analyzed for MCL-1 selectivity by measuring SAHB affinities for recombinant BCL-XLΔC, BCL-WΔC and BFL-1/A1ΔC (FIG. 8B). Recombinant” for “Recombinant”
After the experiments set forth above, further members of the library of stabilized alpha-helices of BCL-2 domains (SAHBs) modeled after the BH3 domains of BCL-2 family proteins were generated in order to identify potent and selective inhibitors of MCL-1. The native alpha-helical structure of BH3 domains was reinforced by incorporating non-natural amino acids containing olefin tethers at the (i, i+4) positions of the non-interacting face, followed by ruthenium catalyzed olefin metathesis to yield a panel of stapled BH3 domains (FIG. 7). Fluorescence polarization assays (FPA) were performed to measure the binding affinity of fluorescently labeled SAHBs for recombinant human MCL-1ΔNΔC (amino acids 172-320), a deletion construct that contains the BH3-binding pocket and affords enhanced expression, purity, and stability. […] To identify MCL-1-selective SAHBs, we first screened for recombinant BCL-XLΔC binding, which eliminated PUMA, BID, BIM, BOK, BAX, and BAK SAHBs and then for recombinant BFL1/A1ΔC binding, which eliminated NOXA SAHB.

[3] = tested on: Jurkat T-cell leukemia cells; experiment: Cell viability by MTT assay, Jurkat; type: cell-based
Protocol: (§3) For viability testing, OPM2 and Jurkat cells (4×10^4) were treated with the indicated agents in Opti-MEM media at 37° C. in a final volume of 100 μL. Cell viability was measured at 24 hours by MTT assay, for which cells were incubated with 20 μL thiazolyl blue tetrazolium bromide (5 mg/mL in DPBS) at 37° C. for 4 hours, the precipitate solubilized with 0.1 N HCl isopropanol (100 μL), and absorbance measured at 570 nm and 650 nm.

[4] = tested on: OPM2 multiple myeloma cells; experiment: Cell viability by MTT assay, OPM2; type: cell-based; details: MTT at 24 hours
Protocol: as §3, with “OPM2 multiple myeloma cells and Jurkat T-cell leukemia were passaged and maintained in RPMI 1640 medium (Invitrogen) supplemented with 10% fetal bovine serum, 100 U/mL penicillin, 100 μg/mL streptomycin, 2 mM L-glutamine, 50 mM HEPES and 50 μM β-mercaptoethanol. For” for “For”

Row | Molecule | BCL-XL binding [1] | binding selectivity among anti-apoptotic proteins [2] | also measured
1 | CC[C@H](C)[C@@H]1NC(=O)[C@@](C)(NC(=O)[C@H](C)NC(=O)[C@H](CC(C)C)NC(=O)[C@H](CCC(N)=O)NC(=O)[C@H](CCCNC(=N)N)NC(=O)CNC(=O)[C@@H](NC(=O)[C@@H](N)CCC(N)=O)C(C)C)CCCC=CCCC[C@@](C)(C(=O)N[C@H](C(=O)N[C@@H](CC(N)=O)C(=O)N[C@@H](CCCNC(=N)N)C(=O)N[C@@H](CCCNC(=N)N)C(=O)N[C@@H](Cc2ccc(O)cc2)C(=O)N[C@@H](CC(=O)O)C(N)=O)[C@@H](C)CC)NC(=O)[C@H](CC(=O)O)NC(=O)CNC1=O [BAK SAHB] (H-QVGRQLA[S5]IGD[S5]INRRYD-NH2; staple 8-12; C-terminus assumed) | eliminated | high affinity pan-anti-apoptotic binders | 
2 | CC[C@H](C)[C@@H]1NC(=O)[C@@](C)(NC(=O)[C@H](CCCCN)NC(=O)[C@H](CC(C)C)NC(=O)[C@H](CO)NC(=O)[C@H](CCC(=O)O)NC(=O)[C@H](CO)NC(=O)[C@H](CC(C)C)NC(=O)[C@H](CCCCN)NC(=O)[C@H](CCCCN)NC(=O)[C@@H](NC(=O)[C@H](CO)NC(=O)[C@H](C)N)[C@@H](C)O)CCCC=CCCC[C@@](C)(C(=O)N[C@@H](CC(C)C)C(=O)N[C@@H](CC(=O)O)C(=O)N[C@@H](CO)C(=O)N[C@@H](CC(N)=O)C(N)=O)NC(=O)[C@H](CC(=O)O)NC(=O)CNC1=O [BAX SAHB] (H-ASTKKLSESLK[S5]IGD[S5]LDSN-NH2; staple 12-16; C-terminus assumed) | eliminated |  | 
3 | CCCC[C@H](NC(=O)[C@]1(C)CCCC=CCCC[C@](C)(NC(=O)[C@H](C)NC(=O)[C@H](CC(C)C)NC(=O)[C@H](Cc2c[nH]cn2)NC(=O)[C@H](CCCNC(=N)N)NC(=O)[C@H](C)NC(=O)[C@@H](NC(=O)[C@H](CC(N)=O)NC(=O)[C@H](CCCNC(=N)N)NC(=O)[C@@H](NC(=O)[C@@H](NC(=O)[C@@H](N)CC(=O)O)[C@@H](C)CC)[C@@H](C)CC)[C@@H](C)CC)C(=O)N[C@@H](C(C)C)C(=O)NCC(=O)N[C@@H](CC(=O)O)C(=O)N1)C(=O)N[C@@H](CC(=O)O)C(=O)N[C@@H](CCCNC(=N)N)C(=O)N[C@@H](CO)C(=O)N[C@H](C(=O)N[C@@H](CCCNC(=N)N)C(=O)N[C@@H](CCCNC(=N)N)C(N)=O)[C@@H](C)CC [BID SAHB] (H-DIIRNIARHLA[S5]VGD[S5][Nle]DRSIRR-NH2; staple 12-16; C-terminus assumed) | eliminated |  | 
4 | CC[C@H](C)[C@H](N)C(=O)N[C@@H](Cc1c[nH]c2ccccc12)C(=O)N[C@H](C(=O)N[C@@H](C)C(=O)N[C@@H](CCC(N)=O)C(=O)N[C@@H](CCC(=O)O)C(=O)N[C@@H](CC(C)C)C(=O)N[C@@H](CCCNC(=N)N)C(=O)N[C@@]1(C)CCCC=CCCC[C@@](C)(C(=O)N[C@@H](Cc2ccccc2)C(=O)N[C@@H](CC(N)=O)C(=O)N[C@@H](C)C(=O)N[C@@H](Cc2ccc(O)cc2)C(=O)N[C@@H](Cc2ccc(O)cc2)C(=O)N[C@@H](C)C(=O)N[C@@H](CCCNC(=N)N)C(=O)N[C@@H](CCCNC(=N)N)C(N)=O)NC(=O)[C@H](CC(=O)O)NC(=O)CNC(=O)[C@H]([C@@H](C)CC)NC1=O)[C@@H](C)CC [BIM SAHB] | eliminated | pan-anti-apoptotic binder | 
5 | CCCC[C@H](NC(=O)[C@H](CCC(=O)O)NC(=O)[C@H](CC(C)C)NC(=O)[C@]1(C)CCCC=CCCC[C@](C)(NC(=O)[C@H](CC(C)C)NC(=O)[C@H](CC(C)C)NC(=O)[C@@H](NC(=O)[C@H](C)NC(=O)[C@H](CO)NC(=O)[C@@H](NC(=O)[C@H](CCC(=O)O)NC(=O)[C@H](C)NC(=O)[C@H](CC(C)C)NC(=O)[C@@H](N)CCCNC(=N)N)C(C)C)C(C)C)C(=O)N[C@@H](CC(C)C)C(=O)NCC(=O)N[C@@H](CC(=O)O)C(=O)N1)C(=O)N[C@H](C(=O)N[C@@H](CCCNC(=N)N)C(N)=O)[C@@H](C)CC [BOK SAHB] (H-RLAEVSAVLL[S5]LGD[S5]LE[Nle]IR-NH2; staple 11-15; C-terminus assumed) | eliminated | significant preference for MCL-1 over the other anti-apoptotics | 
6 | CCCC[C@@H]1NC(=O)[C@@](C)(NC(=O)[C@H](CCCNC(=N)N)NC(=O)[C@H](CC(C)C)NC(=O)[C@H](CCC(N)=O)NC(=O)[C@H](C)NC(=O)CNC(=O)[C@@H](NC(=O)[C@H](CCC(=O)O)NC(=O)[C@H](CCCNC(=N)N)NC(=O)[C@H](C)NC(=O)[C@H](Cc2c[nH]c3ccccc23)NC(=O)[C@@H](N)CCC(N)=O)[C@@H](C)CC)CCCC=CCCC[C@@](C)(C(=O)N[C@@H](CC(C)C)C(=O)N[C@@H](CC(N)=O)C(=O)N[C@@H](C)C(=O)N[C@@H](CCC(N)=O)C(=O)N[C@@H](Cc2ccc(O)cc2)C(N)=O)NC(=O)[C@H](CC(=O)O)NC(=O)[C@H](C)NC1=O [PUMA SAHB] (H-QWAREIGAQLR[S5][Nle]AD[S5]LNAQY-NH2; staple 12-16; C-terminus assumed) | eliminated |  | 
7 | CC(NC(=O)C(NC(=O)OCc1ccccc1)C(C)C)C(=O)NC(CC(=O)O)C(=O)CF (stereo not drawn) [z-VAD, reference compound] (Cbz-Val-Ala-Asp-CH2F; configuration not given here) |  |  | effect of pan-caspase inhibitor on MCL-1 SAHBD-induced sensitization ([3]; z-VAD 50 μM with MCL-1 SAHBD plus TRAIL/FasL, Jurkat and OPM2 cells): completely abrogated the negative effects on cell viability
8 | LEVESXTQLXRFGDKLNFRQKL [NOXA SAHBB] |  | binds MCL-1ΔNΔC exclusively; also recorded: potent and exclusive MCL-1ΔNΔC binding activity | sensitization of Jurkat cells to FasL ([3]; combined with low dose FasL, MTT at 24 hours): behaved identically to MCL-1 SAHBD; also recorded: sensitized the apoptotic response of Jurkat cells to TRAIL and FasL; sensitization of Jurkat cells to TRAIL ([3]; combined with low dose TRAIL, MTT at 24 hours): behaved identically to MCL-1 SAHBD; also recorded: sensitized the apoptotic response of Jurkat cells to TRAIL and FasL
9 | B1 |  |  | Jurkat cell viability, single agent ([3]; MTT at 24 hours): dose-responsive cytotoxicity; also recorded: induced apoptosis; OPM2 cell viability, single agent [4]: sensitive to TRAIL; also recorded: induced apoptosis
10 | B2 |  |  | Jurkat cell viability, single agent ([3]; MTT at 24 hours): dose-responsive cytotoxicity; also recorded: only Jurkat cells were sensitive to FasL; OPM2 cell viability, single agent [4]: sensitive to TRAIL but not FasL; also recorded: only Jurkat cells were sensitive to FasL
